Laboratory results from paper PMC11173529, “Structure–Activity Relationship Studies in a Series of Xanthine Inhibitors of SLACK Potassium Channels” (Molecules, 2024).

These compounds were tested against T1, KV2.1 (Homo sapiens, UniProt Q14721) (assay: Tl+-flux selectivity panel in HEK-293 cells: KV2.1). Conditions: HEK293, 10 µM test compound, relative to control guangxitoxin 1E, read-out: Percent Inhibition ± SEM.
T1 construct: expressed in transfected cells; host or cells: HEK293
T1 sequence (Q14721 1-858): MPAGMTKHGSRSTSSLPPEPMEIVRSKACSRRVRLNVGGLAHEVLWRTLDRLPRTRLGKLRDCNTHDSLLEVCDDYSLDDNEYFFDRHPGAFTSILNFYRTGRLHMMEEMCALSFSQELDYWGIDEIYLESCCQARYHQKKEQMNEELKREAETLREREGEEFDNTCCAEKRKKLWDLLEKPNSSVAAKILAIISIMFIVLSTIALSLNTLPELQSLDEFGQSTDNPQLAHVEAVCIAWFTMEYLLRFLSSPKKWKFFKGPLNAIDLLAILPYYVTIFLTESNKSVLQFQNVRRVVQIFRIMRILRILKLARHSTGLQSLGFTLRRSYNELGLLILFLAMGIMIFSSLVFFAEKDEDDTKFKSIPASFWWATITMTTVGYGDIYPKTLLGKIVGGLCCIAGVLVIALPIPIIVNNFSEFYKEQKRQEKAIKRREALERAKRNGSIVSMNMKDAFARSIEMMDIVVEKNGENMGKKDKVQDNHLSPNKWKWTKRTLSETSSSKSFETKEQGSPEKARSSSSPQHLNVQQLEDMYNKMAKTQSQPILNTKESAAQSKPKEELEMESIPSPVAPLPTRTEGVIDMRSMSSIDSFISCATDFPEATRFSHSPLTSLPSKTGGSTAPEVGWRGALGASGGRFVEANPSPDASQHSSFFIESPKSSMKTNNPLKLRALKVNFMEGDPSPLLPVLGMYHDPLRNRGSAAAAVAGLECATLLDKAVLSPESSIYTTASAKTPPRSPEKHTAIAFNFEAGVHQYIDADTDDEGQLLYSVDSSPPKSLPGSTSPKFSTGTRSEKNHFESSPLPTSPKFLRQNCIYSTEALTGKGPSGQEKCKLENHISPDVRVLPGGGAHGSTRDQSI
Assay type: cell-based
Protocol: With a handful of analogs that offered improved SLACK potency relative to hit compound 8, we next proceeded to investigate the ancillary pharmacology of such compounds, both with respect to other Slo family members as well as versus a spectrum of diverse ion channels (Table 5). Thus, we screened four compounds (32, 48, 70, and 71) at 10 µM in our in-house selectivity panel of Tl^+-flux assays in HEK-293 cells stably expressing the target of interest. […] Some valuable SAR was noted as well. […] Reduction of inhibition at Maxi-K α1/β4 also followed. This SAR will be important to bear in mind for continued optimization within this series. […] Of particular note is the lack of significant hERG activity in this series, as activity versus that counter-target has been an issue with other SLACK inhibitors.
Stably transfected monoclonal HEK293 cell lines expressing Slick, Maxi-K α1/β3, Maxi-K α1/β4, CaV3.2, GIRK 1/2, KV2.1, KV7.2, NaV1.7, and TASK-1 were generated as previously described. Stably transfected monoclonal HEK293 cell lines expressing hERG were generated as previously described. CHO-K1 cells expressing human Slack and disease-associated human Slack mutations, G288S and A934T, were generated by transfecting a PiggyBac TRE mammalian expression vector (VectorBuilder, Chicago, IL, USA) containing KCNT1. FuGENE 6 (Promega, Madison, WI, USA) transfection reagent and protocol, together with Opti-MEM (Thermo Fisher Scientific, Walkham, MA, USA), were utilized.
The Tl^+ flux assays were conducted as previously described with modifications optimized for individual cell lines as described below. Following removal of cell culture media, cells were loaded with Tl^+-sensitive dye loading solution containing Thallos-AM (ION Biosciences, San Marcos, TX, USA), 1.25 mM Probenecid, and 0.3% Pluronic F-127 (MilliporeSigma, Burlington, MA, USA), in assay buffer comprised of Hanks Balanced Salt Solution (HBSS) (Thermo Fisher Scientific, Waltham, MA, USA) and 20 mM HEPES (Corning, Corning, NY, USA) at room temperature for one-hour. Dye loading solution was replaced with 20 μL/well of assay buffer prior to assaying. Cell plates were then loaded onto a Panoptic kinetic imaging plate reader (WaveFront Biosciences, Franklin, TN, USA). Data were acquired at 5 Hz (excitation 482 ± 35 nm, emission 536 ± 40 nm) for 10 s, at which time 20 μL/well of test compounds in assay buffer at 2-fold above the desired final concentration was added and allowed to incubate for 120 s. Next, 10 μL/well of Tl^+ stimulus buffer (129 mM Na gluconate, 1.2 mM CaSO4, 1 MgSO4, 1 mM Na2HPO4, 4.17 mM NaHCO3, 5.56 mM glucose, 2.5 mM Tl2SO4, and 10 mM HEPES pH 7.3) was added. Imaging was concluded after an additional 120 s.
In the case of `CN(Cc1cccc(F)c1)c1nc2c(c(=O)n(Cc3ccccc3)c(=O)n2C)n1C` [Analog 48], the inhibition at 10 µM is reported as 51 ± 1.2%. `Cn1c(N(Cc2ccccc2)CC2CC2)nc2c1c(=O)n(Cc1ccccc1)c(=O)n2C` [Analog 71] gave an inhibition at 10 µM of 33 ± 1.2%. Work on `CCCCN(Cc1ccccc1)c1nc2c(c(=O)n(Cc3ccccc3)c(=O)n2C)n1C` [Analog 70] yielded an inhibition at 10 µM of 35 ± 1.3%. With `COc1cccc(Cn2c(=O)c3c(nc(N(C)Cc4ccccc4)n3C)n(C)c2=O)c1` [Analog 32] the inhibition at 10 µM was 51 ± 1.5%.
